Patent US20070172825A1, “Methods and kits for identifying functions and binding substances of gene products” (HUMAN METABOLOME TECHNOLOGIES, INC., priority 2004, published 2007)

Tested on: Escherichia coli gene product (lactate dehydrogenase)
Experiment: Reaction of purified gene product with 19-substrate compound cocktail, changes detected by CE/MS
Type: biochemical
Conditions: 1 μg purified protein added to cocktail (100 μM each substrate, NADH 500 μM), 37° C., 30 min; control without gene product; FIG. 2
Protocol: As the compound cocktail, 100 μl of HEPES buffer (5 mM, pH7.5) comprising 19 different substrate compounds involved in the glycolytic system, TCA cycle, or pentose phosphate cycle (fructose-1,6-phosphate (F16P), 6-phosphogluconate (6PG), 2,3-phosphoglycerate (23DPG), glucose-1-phosphate (G1P), fructose-6-phosphate (F6P), glucose-6-phosphate (G6P), ribulose-5-phosphate (Ribulose5P), ribose-5-phosphate (Ribose5P), erythrose-4-phosphate (Erythrose4P), isocitric acid (iso-Citrate), citric acid (Citrate), 2-phosphoglycerate, 3-phosphoglycerate (2PG/3PG), cis-aconitic acid (cis-Aconitate), phosphoenolpyruvic acid (PEP), succinic acid (Succinate), fumaric acid (Fumarate), lactic acid (Lactate), and pyruvic acid (Pyruvate)) (100 μM each; the final concentration is shown in all parentheses hereafter), supplemented with NADH (500 μM), MgSO4 (10 mM), and KCl (10 mM) was used. […]
One μg of the purified protein was added to the above compound cocktail and incubated at 37° C. for 30 min. Immediately thereafter, the protein was removed by ultrafiltration and the reaction mixture was analyzed using a capillary electrophoresis-mass spectrometer (CE/MS). […]
CE/MS was used according to the instructions described in documents (Japanese Patent No. 3341765 and Soga T, et al., Anal. Chem., 74, 2233-2239 (2002)). […] Each compound can be detected as its own mass number (m/z).

SMILES	change in concentration of the compound in the cocktail compared with the control experiment
CC(=O)C(=O)O [pyruvic acid]	significant decrease
CC(O)C(=O)O (centres unmarked) [lactic acid]	increase
